Test results reported in patent US9428519B2, “Acylated derivative of homoharringtonine, preparation method therefor, and application thereof” (HANGZHOU BENSHENG PHARMACEUTICAL CO., LTD., priority 2011, dated 2016).
≈ marks a conversion by molar mass, not a printed value.

Key:
[1] = system: H9 (acute lymphoblastic leukemia, ALL); experiment: MTT growth inhibition of leukemia cells, 72 h; type: cell-based, human
Summary of the method: (§1)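 6000 cells per well in RPMI 1640 with 10% FBS were treated with graded homoharringtonine derivative concentrations for 72 h at 37 °C, 5% CO2. Viability by MTT relative to untreated control (100%) gave 72 h IC50.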

[2] = system: Jurkat (acute lymphoblastic leukemia, ALL); experiment: MTT growth inhibition of leukemia cells, 72 h; type: cell-based, human
Summary of the method: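 Jurkat human acute lymphoblastic leukemia cells were seeded at 6000 cells per well in 96-well plates containing 1640 medium with 10% fetal bovine serum. Test compounds were added across a range of concentrations, and plates were held at 37° C. in 5% CO2 for 72 hours before viable cells were quantified by MTT.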

[3] = system: K562/adr (drug-resistant, chronic myeloid leukemia, CML); experiment: MTT growth inhibition of leukemia cells, 72 h; type: cell-based, human
Summary of the method: as §1

[4] = system: Kasumi-1 (acute myeloid leukemia M2 type, AML-M2); experiment: MTT growth inhibition of leukemia cells, 72 h; type: cell-based, human
Summary of the method: as §1

[5] = system: NB4 (acute promyelocytic leukemia, AML); experiment: MTT growth inhibition of leukemia cells, 72 h; type: cell-based, human
Summary of the method: as §1

[6] = system: RPMI8226 (multiple myeloma); experiment: MTT growth inhibition of multiple myeloma cells, 72 h; type: cell-based, human
Summary of the method: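 RPMI8226 cells (6000/well) in 1640 medium with 10% FBS were exposed to graded compound concentrations for 72 h at 37 °C, 5% CO2. Viable cells were read by MTT, normalised to untreated control as 100% viability, and 72 h IC50 calculated.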

A549 (human lung cancer) = experiment: MTT growth inhibition of human solid tumor cells, 72 h; type: cell-based
Summary of the method: (§2)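 Cells seeded at 4000/well in DMEM high glucose with 10% FBS and grown 24 h at 37° C, 5% CO2. They were then exposed to homoharringtonine derivatives at various concentrations for 72 h. Viability measured by MTT, expressed as % of untreated control.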

[7] = system: Becap37 (human breast cancer cell); experiment: as above; type: cell-based
Summary of the method: as §2

[8] = system: CNE (nasopharyngeal carcinoma cell); experiment: as above; type: cell-based
Summary of the method: as §2

[9] = system: CaES-17 (esophageal cancer cell); experiment: as above; type: cell-based
Summary of the method: as §2

[10] = system: Hela (human cervical cancer cell); experiment: as above; type: cell-based
Summary of the method: as §2

[11] = system: Hep-2 (laryngeal carcinoma); experiment: as above; type: cell-based
Summary of the method: as §2

[12] = system: Huh7 (human liver cancer cell); experiment: as above; type: cell-based
Summary of the method: as §2

MG63 (osteosarcoma) = experiment: as above; type: cell-based
Summary of the method: as §2

[13] = system: MGC 803 (human gastric cancer cell); experiment: as above; type: cell-based
Summary of the method: as §2

[14] = system: PANC-1 (pancreatic cancer); experiment: as above; type: cell-based
Summary of the method: as §2

PC-3 (prostate cancer) = experiment: as above; type: cell-based
Summary of the method: as §2

[15] = system: RKO (human colon adenocarcinoma cell); experiment: as above; type: cell-based; details: MTT
Summary of the method: as §2

[16] = system: SK-OV-3 (ovarian cancer cell); experiment: as above; type: cell-based
Summary of the method: as §2

[17] = system: U87 MG (malignant glioma cell); experiment: as above; type: cell-based
Summary of the method: as §2

COC(=O)C[C@](O)(CCCC(C)(C)OC(=O)Cc1ccccc1)C(=O)O[C@@H]1C(OC)=C[C@]23CCCN2CCc2cc4c(cc2[C@H]13)OCO4 [BS-HH-074]
IC50 ([1]; Homo sapiens, MTT): 0.004 µg/mL (≈ 0.00603 µM)
IC90 ([1]; Homo sapiens, MTT): 0.01 µg/mL (≈ 0.0151 µM)
improvement of anti-H9 activity compared with homoharringtonine ([1]; vs HHT): more than 2 fold
IC50 ([2]; Homo sapiens, Jurkat): 0.0038 µg/mL (≈ 0.00572 µM)
IC90 ([2]; Homo sapiens, Jurkat): ≥ 16 µg/mL
IC50 ([3]; Homo sapiens, K562/Adr, MTT): 0.007 µg/mL (≈ 0.0105 µM)
IC90 ([3]; Homo sapiens, K562/Adr, MTT): 14.1 µg/mL (≈ 21.2 µM)
improvement of anti-K562/adr activity compared with homoharringtonine ([3]; vs HHT): more than 5 fold
IC50 ([4]; Homo sapiens, Kasumi 1, MTT): 0.001 µg/mL (≈ 0.00151 µM)
IC90 ([4]; Homo sapiens, Kasumi 1, MTT): 0.005 µg/mL (≈ 0.00753 µM)
improvement of anti-Kasumi-1 activity compared with homoharringtonine ([4]; vs HHT): more than 5 fold
IC50 ([5]; Homo sapiens, MTT): 0.003 µg/mL (≈ 0.00452 µM)
IC90 ([5]; Homo sapiens, MTT): 0.007 µg/mL (≈ 0.0105 µM)
improvement of anti-NB4 activity compared with homoharringtonine ([5]; vs HHT): more than 2 fold
IC50 ([6]; Homo sapiens, RPMI-8226, MTT): 0.003 µg/mL (≈ 0.00452 µM)
IC90 ([6]; Homo sapiens, RPMI-8226, MTT): 0.015 µg/mL (≈ 0.0226 µM)
IC50 (A549 (human lung cancer); Homo sapiens, A549): 0.007 µg/mL (≈ 0.0105 µM)
IC90 (A549 (human lung cancer); Homo sapiens, A549): > 16 µg/mL
IC50 ([7]; Homo sapiens): 0.003 µg/mL (≈ 0.00452 µM)
IC90 ([7]; Homo sapiens): 8.38 µg/mL (≈ 12.6 µM)
IC50 ([8]; Homo sapiens, MTT): 0.0014 µg/mL (≈ 0.00211 µM)
IC90 ([8]; Homo sapiens, MTT): > 16 µg/mL
anti-CNE effect relative to homoharringtonine ([8]; vs HHT): > 27 fold
IC50 ([9]; Homo sapiens, CaEs17): 0.015 µg/mL (≈ 0.0226 µM)
IC90 ([9]; Homo sapiens, CaEs17): 16 µg/mL (≈ 24.1 µM)
IC50 ([10]; Homo sapiens, HeLa, MTT): 0.0034 µg/mL (≈ 0.00512 µM)
IC90 ([10]; Homo sapiens, HeLa, MTT): 12.6 µg/mL (≈ 19 µM)
anti-Hela effect relative to homoharringtonine ([10]; vs HHT): > 5.6 fold
IC50 ([11]; Homo sapiens, HEp-2): 0.006 µg/mL (≈ 0.00904 µM)
IC90 ([11]; Homo sapiens, HEp-2): > 16 µg/mL
IC50 ([12]; Homo sapiens, Huh-7): 0.003 µg/mL (≈ 0.00452 µM)
IC90 ([12]; Homo sapiens, Huh-7): 0.05 µg/mL (≈ 0.0753 µM)
IC50 (MG63 (osteosarcoma); Homo sapiens, MG-63, MTT): 0.006 µg/mL (≈ 0.00904 µM)
IC90 (MG63 (osteosarcoma); Homo sapiens, MG-63, MTT): 1.18 µg/mL (≈ 1.78 µM)
anti-MG63 effect relative to homoharringtonine (MG63 (osteosarcoma); vs HHT): substantially superior
IC50 ([13]; Homo sapiens, MGC-803): 0.006 µg/mL (≈ 0.00904 µM)
IC90 ([13]; Homo sapiens, MGC-803): 0.055 µg/mL (≈ 0.0829 µM)
IC50 ([14]; Homo sapiens, PANC-1, MTT): 0.014 µg/mL (≈ 0.0211 µM)
IC90 ([14]; Homo sapiens, PANC-1, MTT): > 16 µg/mL
IC50 (PC-3 (prostate cancer); Homo sapiens, MTT): 0.0077 µg/mL (≈ 0.0116 µM)
IC90 (PC-3 (prostate cancer); Homo sapiens, MTT): > 16 µg/mL
anti-PC-3 effect relative to homoharringtonine (PC-3 (prostate cancer); vs HHT): more than 10 fold
IC50 ([15]; Homo sapiens): 0.002 µg/mL (≈ 0.00301 µM)
IC90 ([15]; Homo sapiens): 0.006 µg/mL (≈ 0.00904 µM)
IC50 ([16]; Homo sapiens, SK-OV-3, MTT): 0.027 µg/mL (≈ 0.0407 µM)
IC90 ([16]; Homo sapiens, SK-OV-3, MTT): > 16 µg/mL
IC50 ([17]; Homo sapiens, U-87 MG): 0.012 µg/mL (≈ 0.0181 µM)
IC90 ([17]; Homo sapiens, U-87 MG): 0.08 µg/mL (≈ 0.121 µM)

COC(=O)C[C@@](CCCC(C)(C)OC(=O)/C=C/c1ccco1)(OC(=O)/C=C/c1ccco1)C(=O)O[C@@H]1C(OC)=C[C@]23CCCN2CCc2cc4c(cc2[C@H]13)OCO4 [BS-HH-0022]
IC50 H9 ([1]; MTT): 0.19 µg/mL (≈ 0.242 µM)
IC90 H9 ([1]; MTT): 0.4 µg/mL (≈ 0.509 µM)
IC50 Jurkat [2]: 0.088 µg/mL (≈ 0.112 µM)
IC90 Jurkat [2]: 10.13 µg/mL (≈ 12.9 µM)
IC50 K562/adr ([3]; MTT): 0.41 µg/mL (≈ 0.522 µM)
IC90 K562/adr ([3]; MTT): 1.84 µg/mL (≈ 2.34 µM)
IC50 Kasumi-1 ([4]; MTT): 0.063 µg/mL (≈ 0.0802 µM)
IC90 Kasumi-1 ([4]; MTT): 0.22 µg/mL (≈ 0.28 µM)
IC50 NB4 ([5]; MTT): 0.08 µg/mL (≈ 0.102 µM)
IC90 NB4 ([5]; MTT): 0.25 µg/mL (≈ 0.318 µM)
IC50 RPMI8226 ([6]; MTT): 0.12 µg/mL (≈ 0.153 µM)
IC90 RPMI8226 ([6]; MTT): 0.63 µg/mL (≈ 0.802 µM)
IC50 A549 (A549 (human lung cancer)): 0.23 µg/mL (≈ 0.293 µM)
IC90 A549 (A549 (human lung cancer)): >16 µg/mL
IC50 Becap37 [7]: 0.23 µg/mL (≈ 0.293 µM)
IC90 Becap37 [7]: 11.14 µg/mL (≈ 14.2 µM)
IC50 CNE ([8]; MTT): 0.21 µg/mL (≈ 0.267 µM)
IC90 CNE ([8]; MTT): 16 µg/mL (≈ 20.4 µM)
IC50 CaES-17 [9]: 0.61 µg/mL (≈ 0.776 µM)
IC90 CaES-17 [9]: >16 µg/mL
IC50 Hela ([10]; MTT): 0.33 µg/mL (≈ 0.42 µM)
IC90 Hela ([10]; MTT): 9.38 µg/mL (≈ 11.9 µM)
IC50 Hep-2 [11]: 0.22 µg/mL (≈ 0.28 µM)
IC90 Hep-2 [11]: >16 µg/mL
IC50 Huh7 [12]: 0.13 µg/mL (≈ 0.165 µM)
IC90 Huh7 [12]: 0.99 µg/mL (≈ 1.26 µM)
IC50 MG 63 (MG63 (osteosarcoma); MTT): 0.24 µg/mL (≈ 0.305 µM)
IC90 MG 63 (MG63 (osteosarcoma); MTT): 3.25 µg/mL (≈ 4.14 µM)
IC50 MGC 803 [13]: 0.16 µg/mL (≈ 0.204 µM)
IC90 MGC 803 [13]: 0.76 µg/mL (≈ 0.967 µM)
IC50 PANC-1 ([14]; MTT): 0.69 µg/mL (≈ 0.878 µM)
IC90 PANC-1 ([14]; MTT): 15.56 µg/mL (≈ 19.8 µM)
IC50 PC-3 (PC-3 (prostate cancer); MTT): 1.37 µg/mL (≈ 1.74 µM)
IC90 PC-3 (PC-3 (prostate cancer); MTT): >16 µg/mL
IC50 RKO [15]: 0.044 µg/mL (≈ 0.056 µM)
IC90 RKO [15]: 0.35 µg/mL (≈ 0.445 µM)
IC50 SK-OV-3 ([16]; MTT): 1.33 µg/mL (≈ 1.69 µM)
IC90 SK-OV-3 ([16]; MTT): >16 µg/mL
IC50 U87 MG [17]: 0.16 µg/mL (≈ 0.204 µM)
IC90 U87 MG [17]: 0.59 µg/mL (≈ 0.751 µM)
